Data from patent publication US11203575B2, “Methhod for producing a crystalline form of 5-amino-2,3-dihydrophthalazine-1,4-dione” (METRIOPHARM AG, priority 2016, dated 2021).

Text: FIG. 5: TG-DSC diagram of crystalline form of 5-amino-2,3-dihydro-1,4-phthalazinedione produced by the method according to the invention. Upper trace: Mass loss determined by TG. Lower trace: Heat flow determined by DSC

thermal stability up to (simultaneous TG and DSC, solid crystalline form (FIG. 5)): up to 328±1 °C
Compound: Nc1cccc2c(=O)[nH][nH]c(=O)c12 [crystalline form of luminol, 5-amino-2,3-dihydrophthalazine-1,4-dione]
solid state transformation to other forms (TG-DSC, until thermal degradation of the crystalline compound sets in (FIG. 5)): no solid state transformation to other forms is observed
